The values below are quoted from earlier work in patent US5496703A, “Indirect immunoassay for dioxinlike compounds” (priority 1993, dated 1996).

Each structure is given as a SMILES string. Read-outs that look alike come from different tables or passages of the source.

The test system of one data set is Ah receptor. Particulars: cited from earlier work.
The test system of data set [1] is AHH. The conditions noted are these: responsive C57BL/6J inbred mouse strain; cited from earlier work.
Data set [2] has as its system AHH. Particulars: nonresponsive DBA/2 inbred mouse strain; cited from earlier work.

On to `Cc1ccc2cc3c(ccc4ccccc43)c3c2c1CC3` [3-methylcholanthrene], for which the “binding affinity to Ah receptor” value in the data set on Ah receptor is reported as “high affinity”. For the same molecule, the AHH induction result in the data set with AHH [1] was “capable of inducing AHH activity”; in the data set with AHH [2] it was “not in the nonresponsive DBA/2 inbred mouse strain”.
Consider `c1ccc2c(c1)cc1ccc3cccc4ccc2c1c34` [benzo[a]pyrene], for which the “binding affinity to Ah receptor” value in the data set on Ah receptor is reported as “high affinity”.
